Data: patent publication US20050267016A1, “CD-10 activated prodrug compounds” (priority 2001, published 2005)
Read-outs that look alike come from different tables or passages of the source.

Legend:
[1] = tested on: CD10 transfected CHO cells, Clone #5; assay: 3H thymidine proliferation assay, CD10 transfected CHO Clone #5; settings: Cricetulus griseus, read-out: IC50 Clone #5
Description: (§2) The fully assembled coding region was sub-cloned into a mammalian expression vector, downstream of the hCMV-MIE promoter. DNA sequence analysis confirmed sequence identity with the coding sequence of human CD10 (Genbank accession number Y00811). The expression plasmid was linearized and stably transfected into CHO—S cells. CD10 expressing transfectant clones were selected under 500 ug/mL of hygromycin and screened by flow cytometry for cell-surface CD10 expression using a commercially available anti-CD10-FITC antibody.

[2] = tested on: 22 RV1 (prostate carcinoma) cells; assay: 3H-thymidine incorporation, 22RV1 cells; format: cell-based; settings: Homo sapiens, Table 6, 48 hours, read-out: IC50 22RV1 CD10−PSA+
Description: Adherent cells, LNCaP (prostate carcinoma), PC-3 (prostate carcinoma) and 22 RV1 (prostate carcinoma), were cultured in DMEM media containing 10% heat inactivated fetal calf serum (FCS). On the day of the study the cells were detached from the plate with a trypsin solution. The collected cells were washed and resuspended at a concentration of 0.25×10^6 cells/ml in DMEM containing 10% FCS. 100 μl of cell suspension were added to 96 well plates and the plates were incubated for 3 hours to allow the cells to adhere. […] The plates were then incubated for 24 hours, pulsed with 1:0 μl of a 100 μCi/ml ^3H-thymidine and incubated for an additional 24 hours (total incubation time 48 hours). The plates were harvested using a 96 well Harvester (Packard Instruments) and counted on a Packard Top Count Counter. Four parameter logistic curves were fitted to the ^3H-thymidine incorporation as a function of drug molarity using Prism software to determine IC50 values.

in vivo = settings: female, ICR, mouse, iv, 10 umol/kg
Description: (§3) Plasma was obtained from three individual animals in each group at 5 minutes, 1, 2, 4, or 6 hr.

[3] = tested on: CD10 transfected CHO cells, Clone #3; assay: 3H thymidine proliferation assay, CD10 transfected CHO Clone #3; format: cell-based, Chinese Hamster; settings: Cricetulus griseus, Table 25
Description: as §2

[4] = tested on: HL-60 xenograft homogenate; assay: Hydrolysis by mouse tumor xenograft homogenates; format: biochemical; settings: 12.5 μg/mL, up to 1 hr, 37° C.
Description: (§1) Soluble protein was measured and results are reported as protein specific activity. The results, illustrated in FIG. 13, indicate the LNCaP cells contain the highest Suc-Ile-Ala-Leu-Dox hydrolyzing activity while HL-60 cells show no Suc-Ile-Ala-Leu-Dox hydrolyzing activity.

[5] = tested on: LNCaP xenograft homogenate; assay: Hydrolysis by mouse tumor xenograft homogenates; format: biochemical; settings: 12.5 μg/mL, up to 1 hr, 37° C.
Description: as §1

[6] = tested on: colorectal carcinoma LS174t xenograft; assay: LS174t xenograft efficacy; format: in vivo, nude mice; settings: for Mean Day of Survival (MDS): animals whose tumors reached 1.5 g prior to Day 60; for long-term survivors: up to 60 days
From the text: There were 4 and 2 long-term survivors in the low and high dose groups, respectively, compared with 0 in the vehicle control group.

[7] = mouse, in vivo, iv, 100 umol/kg
Description: as §3

[8] = mouse, in vivo, iv, 100 umol/kg; remark: listed apart in the source
Description: as §3

[9] = Second single dose Maximum Tolerated Dose (SD-MTD) study, 49 days; settings: mouse, in vivo, iv
Description: In a second single dose Maximum Tolerated Dose (SD-MTD) study, groups of five normal ICR mice were administered intravenous bolus doses of Suc-βAla-Leu-Ala-Leu-Dox. The mice were observed daily for 49 days and body weights measured twice weekly.
In a second single dose Maximum Tolerated Dose (SD-MTD) study, groups of five normal ICR mice were administered intravenous bolus doses of Suc-Leu-Ala-Leu-Dox. The mice were observed daily for 49 days and body weights measured twice weekly.
In a second single dose Maximum Tolerated Dose (SD-MTD) study, groups of five normal ICR mice were administered intravenously bolus doses of Suc-Ile-Ala-Leu-Dox. The mice were observed daily for 49 days and body weights measured twice weekly.
In a second single dose Maximum Tolerated Dose (SD-MTD) study, groups of five normal ICR mice were administered intravenous bolus doses of Suc-βAla-Ile-Ala-Leu-Dox. The mice were observed daily for 49 days and body weights measured twice weekly.

Parental CHO cells = assay: Conversion to Leu-Dox or Gly-Dox in cell supernatants, parental CHO; format: cell-based, Chinese Hamster; settings: 10 μM, 37° C.
Description: To directly ask the question of whether the CD10 expressing cells were capable of cleaving the prodrug, supernatants from CD10 transfected or parental CHO cells treated with the compounds were collected. […] After incubation for 1, 4, and 24 hours, an aliquot of each supernatant was transferred to a 96-well plate and frozen at −20° C. Samples were subsequently thawed and analyzed by reversed phase HPLC (4.6×50 mm 21 TSK Super-ODS column) with fluorescence detection after dilution with 3 volumes of acetonitrile, removal of precipitate by centrifugation, and further dilution into 3 volumes of water. When incubated with Suc-βAla-Leu-Ala-Leu-Dox, there was no detectable metabolism to Leu-Dox observed with the parental cell line while clone 8 (CD10 transfected) generated significant levels of Leu-Dox from Suc-βAla-Leu-Ala-Leu-Dox (Table 27).

SMILES: COc1cccc2c1C(=O)c1c(O)c3c(c(O)c1C2=O)C[C@@](O)(C(=O)CO)C[C@@H]3O[C@H]1C[C@H](N)[C@H](O)[C@H](C)O1 [Doxorubicin, reference compound]
- IC50 [1]: 810 nM
- IC50 [2]: 30 nM
- AUC(0-t) (in vivo): 3.3 µM·h
- IC50 [3]: 550 nM

SMILES: CC[C@H](C)[C@H](NC(=O)CCC(=O)O)C(=O)N[C@@H](C)C(=O)N[C@@H](CC(C)C)C(=O)N[C@H]1C[C@H](O[C@H]2C[C@](O)(C(=O)CO)Cc3c(O)c4c(c(O)c32)C(=O)c2c(OC)cccc2C4=O)O[C@@H](C)[C@H]1O [Suc-Ile-Ala-Leu-Dox]
- hydrolyzing activity (protein specific activity) [4]: no
- hydrolyzing activity (protein specific activity) [5]: highest

SMILES: CC[C@H](C)[C@H](NC(=O)CCNC(=O)CCC(=O)O)C(=O)N[C@@H](C)C(=O)N[C@@H](CC(C)C)C(=O)N[C@H]1C[C@H](O[C@H]2C[C@](O)(C(=O)CO)Cc3c(O)c4c(c(O)c32)C(=O)c2c(OC)cccc2C4=O)O[C@@H](C)[C@H]1O [Suc-βAla-Ile-Ala-Leu-Dox]
- Mean Day of Survival (MDS) ([6]; 53 mg/kg Q5DX5): 29.7 days
- long-term survivors ([6]; 53 mg/kg i.v. Q5DX5, groups of ten): 4
- Mean Day of Survival (MDS) ([6]; 68 mg/kg Q5DX5): 23.4 days
- long-term survivors ([6]; 68 mg/kg i.v. Q5DX5, groups of ten): 2

SMILES: COc1cccc2c1C(=O)c1c(O)c3c(c(O)c1C2=O)C[C@@](O)(C(=O)CO)C[C@@H]3O[C@H]1C[C@H](NC(=O)[C@H](CC(C)C)NC(=O)[C@H](C)NC(=O)[C@H](CC(C)C)NC(=O)CCNC(=O)CCC(=O)O)[C@H](O)[C@H](C)O1 [Suc-βAla-Leu-Ala-Leu-Dox]
- AUC(0-t) [7]: 806 µM·h
- Plasma AUC0-6 hr of AL-Dox or AG-Dox* [8]: 3.2 µM·h
- Plasma AUC0-6 hr of L-Dox or G-Dox* [8]: 40 µM·h
- MTD [9]: 50 mg/kg
- Conversion rate to Leu-Dox or Gly-Dox (Parental CHO cells): 0 mM/h
- Percent Conversion/Hour to Leu-Dox or Gly-Dox (Parental CHO cells): 0 Percent Conversion/Hour
